Data from US20260199323A1, “LIGAND COMPOUNDS FOR E3 UBIQUITIN LIGASE, PROTEIN DEGRADERS DEVELOPED ON BASIS OF LIGAND COMPOUNDS, AND USES THEREOF” (GLUETACS THERAPEUTICS (SHANGHAI) CO., LTD., priority 2021, published 2026).
Read-outs that look alike come from different tables or passages of the source. Values belong to the molecule of their own block, whether it stands above or below them.

Legend:
[1] = system: CCRF-CEM; assay: CCK-8 tumor cell proliferation, CCRF-CEM; format: cell-based, Human; parameters: IC50 for inhibiting the proliferation of tumor cells, CCRF-CEM: scale not given here; details: for IC50: Homo sapiens, CCRF-CEM
Procedure, shortened: (§1)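 Cell viability (CCK-8) after compound exposure; IC50 calculated. Cells seeded, treated after 24 h, maximum dose 10 μM, 5-fold serial dilutions over 10 concentrations.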

[2] = system: Hep3B2.7-1; assay: CCK-8 tumor cell proliferation, Hep3B2.7-1; format: cell-based, Human; details: Homo sapiens; Table 18, FAK inhibitor based; HEP3B2.7-1; read-out: IC50 inhibiting proliferation of tumor cells, HEP3B2.7-1
Procedure, shortened: as §1

[3] = system: MM.1S; assay: CCK-8 tumor cell proliferation, MM.1S; format: cell-based; details: for IC50: Homo sapiens, MM1.S
Procedure, shortened: as §1

[4] = system: Vcap; assay: CCK-8 tumor cell proliferation, Vcap; format: cell-based, Human; details: for IC50: Homo sapiens, VCaP
Procedure, shortened: as §1

[5] = system: SW620; assay: CCK-8 tumor cell proliferation, SW620; format: cell-based, Human; details: Homo sapiens, SW-620; Table 18, FAK inhibitor based; SW620; read-out: IC50 inhibiting proliferation of tumor cells, SW620
Procedure, shortened: as §1

[6] = system: CAL-62; assay: CCK-8 tumor cell proliferation, CAL-62; format: cell-based, Human; details: Homo sapiens; Table 18, FAK inhibitor based; CAL-62; read-out: IC50 inhibiting proliferation of tumor cells, CAL-62
Procedure, shortened: as §1

[7] = system: MGC-803; assay: CCK-8 tumor cell proliferation, MGC-803; details: Homo sapiens, Table 18, FAK inhibitor based, MGC803, read-out: IC50 inhibiting proliferation of tumor cells, MGC803
Procedure: (§2) The tumor cells used herein were cultured in a cell culture medium listed in table 4 at 37° C. in an incubator with 5% CO2. Prior to experimentation, all cells used were correctly identified by STR profiling, and tested negative for mycoplasma through routine screenings.
(§3) IC50 values of the compounds of the present disclosure (including the compounds in Tables 1 and 3, and compounds of examples) were measured using the Meilun Cell Counting Kit-8 kit from Dalian Meilun Biotech Co., Ltd. Assay details are as follows: tumor cells were seeded in a 96-well plate at a density listed in Table 5. After 24 h, 100 μL of the inoculated cells were treated with 0.5 μL of the compounds of the present disclosure (including the compounds in Tables 1 and 3, and compounds of examples) at 10 different successively decreasing concentrations (starting at the highest concentration of 10 μM; 5-fold serial dilutions). After the cells were treated with the compounds of the present disclosure for a period of time, the cell viability detection reagent was added to the culture medium for cell viability assessment according to the instructions provided with the CCK-8 kit. […] The growth inhibition of the compounds of the present disclosure on cells was plotted by Prism Graphpad software, and the IC50 values of the compounds of the present disclosure were calculated therefrom.

[8] = system: Kasumi-1; assay: CCK-8 tumor cell proliferation, Kasumi-1; format: cell-based, Human; details: Table 7, designed based on BTK inhibitors; 72 h
Procedure, shortened: as §1

[9] = system: MDA-MB-231; assay: CCK-8 tumor cell proliferation, MDA-MB-231; format: cell-based, Human; parameters: IC50 for inhibiting the proliferation of tumor cells, MDA-MB-231: scale not given here; details: Table 7, designed based on BTK inhibitors, 96 h
Procedure, shortened: as §1

[10] = system: NCI-H1975; assay: CCK-8 tumor cell proliferation, NCI-H1975; format: cell-based, Human; details: Table 7, designed based on BTK inhibitors; 96 h
Procedure, shortened: as §1

[11] = system: THP-1; assay: CCK-8 tumor cell proliferation, THP-1; format: cell-based, Human; details: Table 7, designed based on BTK inhibitors, 72 h
Procedure: as §2, §3

[12] = system: 22RV1; assay: CCK-8 tumor cell proliferation, 22RV1; parameters: species or system Human; details: Table 7, designed based on BTK inhibitors, 96 h
Procedure: as §2, §3

[13] = system: Mino; assay: CCK-8 tumor cell proliferation, Mino; format: cell-based, Human; details: Table 7, designed based on BTK inhibitors; 72 h
Procedure, shortened: as §1

[14] = system: MV-4-11; assay: CCK-8 tumor cell proliferation, MV-4-11; format: cell-based, Human; details: Table 7, designed based on BTK inhibitors; 72 h
Procedure, shortened: as §1

[15] = system: JEKO-1; assay: CCK-8 tumor cell proliferation, JEKO-1; parameters: species or system Human; details: Table 7, designed based on BTK inhibitors; 96 h
Procedure: as §2, §3

[16] = Table 18, FAK inhibitor based, read-out: IC50 inhibiting proliferation of tumor cells, CCRF-CEM
[17] = Table 18, FAK inhibitor based, MM.1S, read-out: IC50 inhibiting proliferation of tumor cells, MM.1S
[18] = Table 18, FAK inhibitor based, Vcap, read-out: IC50 inhibiting proliferation of tumor cells, Vcap
[19] = Table 7, designed based on BTK inhibitors, 96 h
[20] = Table 7, designed based on BTK inhibitors, 72 h

SMILES: CNC(=O)c1ccccc1Nc1cc(Nc2cc(C)c(N3CCC(N(C)Cc4ccc5c(c4)CN(C4CCC(=O)NC4=O)C5=O)CC3)cc2OC(C)C)ncc1C(F)(F)F (stereo not shown) [GT-04090, 2-((2-((4-(4-(((2-(2,6-dioxopiperidin-3-yl)-1-oxoisoindolin-5-yl)methyl)(methyl)amino)piperidin-1-yl)-2-isopropoxy-5-methylphenyl)amino)-5-(trifluoromethyl)pyridin-4-yl)amino)-N-methylbenzamide]
- IC50 [6]: 50 to 100 nM
- IC50 [7]: < 50 nM

SMILES: Nc1ncnc2c1c(-c1ccc(Oc3ccccc3)cc1)nn2C1CCN(Cc2ccc3c(c2)CN(C2CCC(=O)NC2=O)C3=O)CC1F (stereo not shown) [GT-02652, 3-(5-((4-(4-amino-3-(4-phenoxyphenyl)-1H-pyrazolo[3,4-d]pyrimidin-1-yl)-3-fluoropiperidin-1-yl)methyl)-1-oxoisoindolin-2-yl)piperidine-2,6-dione]
- IC50 for inhibiting the proliferation of tumor cells, MDA-MB-231 [9]: A+
- IC50 for inhibiting the proliferation of tumor cells, MM.1S [3, 20]: A+
- IC50 for inhibiting the proliferation of tumor cells, 22RV1 [12]: A+
- IC50 for inhibiting the proliferation of tumor cells, Mino [13]: A+
- IC50 for inhibiting the proliferation of tumor cells, MV-4-11 [14]: A+

SMILES: Nc1ncnc2c1c(-c1ccc(Oc3ccccc3)cc1)nn2[C@@H]1CCN(Cc2ccc3c(c2)CN(C2CCC(=O)NC2=O)C3=O)C[C@H]1F (stereo partly drawn) [GT-03287, 3-(5-(((3R,4R)-4-(4-amino-3-(4-phenoxyphenyl)-1H-pyrazolo[3,4-d]pyrimidin-1-yl)-3-fluoropiperidin-1-yl)methyl)-1-oxoisoindolin-2-yl)piperidine-2,6-dione]
- IC50 for inhibiting the proliferation of tumor cells, MDA-MB-231 [9]: A+
- IC50 for inhibiting the proliferation of tumor cells, MM.1S [3, 20]: A+
- IC50 for inhibiting the proliferation of tumor cells, 22RV1 [12]: A+
- IC50 for inhibiting the proliferation of tumor cells, JEKO-1 [15]: A+
- IC50 for inhibiting the proliferation of tumor cells, Mino [13]: A+

SMILES: CNC(=O)c1ccccc1Nc1cc(Nc2cc(C)c(C3CCN(Cc4ccc5c(c4F)CN(C4CCC(=O)NC4=O)C5=O)CC3)cc2OC(C)C)ncc1C(F)(F)F (stereo not shown) [GT-04079, 2-((2-((4-(1-((2-(2,6-dioxopiperidin-3-yl)-4-fluoro-1-oxoisoindolin-5-yl)methyl)piperidin-4-yl)-2-isopropoxy-5-methylphenyl)amino)-5-(trifluoromethyl)pyridin-4-yl)amino)-N-methylbenzamide]
- IC50 [1, 16]: < 50 nM
- IC50 [2]: < 50 nM
- IC50 [3, 17]: < 50 nM
- IC50 [4, 18]: < 50 nM
- IC50 [5]: < 50 nM
- IC50 [6]: < 50 nM
- IC50 [7]: 100 to 500 nM

SMILES: CNC(=O)c1ccccc1Nc1cc(Nc2cc(C)c(N3CCC(N(C)Cc4cc(F)c5c(c4)CN(C4CCC(=O)NC4=O)C5=O)CC3)cc2OC(C)C)ncc1C(F)(F)F (stereo not shown) [GT-04093, 2-((2-((4-(4-(((2-(2,6-dioxopiperidin-3-yl)-7-fluoro-1-oxoisoindolin-5-yl)methyl)(methyl)amino)piperidin-1-yl)-2-isopropoxy-5-methylphenyl)amino)-5-(trifluoromethyl)pyridin-4-yl)amino)-N-methylbenzamide]
- IC50 [6]: 50 to 100 nM
- IC50 [7]: < 50 nM

SMILES: CNC(=O)c1ccccc1Nc1cc(Nc2cc(C)c(N3CCN(Cc4cc5c(cc4F)C(=O)N(C4CCC(=O)NC4=O)C5)CC3)cc2OC(C)C)ncc1C(F)(F)F (stereo not shown) [GT-03942, 2-((2-((4-(4-((2-(2,6-dioxopiperidin-3-yl)-6-fluoro-1-oxoisoindolin-5-yl)methyl)piperazin-1-yl)-2-isopropoxy-5-methylphenyl)amino)-5-(trifluoromethyl)pyridin-4-yl)amino)-N-methylbenzamide]
- IC50 [4, 18]: < 50 nM
- IC50 [5]: < 50 nM
- IC50 [6]: < 50 nM
- IC50 [7]: < 50 nM

SMILES: CNC(=O)c1ccccc1Nc1cc(Nc2cc(C)c(N3CCC(N(C)Cc4ccc5c(c4F)CN(C4CCC(=O)NC4=O)C5=O)CC3)cc2OC(C)C)ncc1C(F)(F)F (stereo not shown) [GT-04091, 2-((2-((4-(4-(((2-(2,6-dioxopiperidin-3-yl)-4-fluoro-1-oxoisoindolin-5-yl)methyl)(methyl)amino)piperidin-1-yl)-2-isopropoxy-5-methylphenyl)amino)-5-(trifluoromethyl)pyridin-4-yl)amino)-N-methylbenzamide]
- IC50 [6]: < 50 nM
- IC50 [7]: 50 to 100 nM

The next lines start with the values.

- IC50 [1, 16]: < 50 nM
- IC50 [2]: < 50 nM
- IC50 [3, 17]: < 50 nM
- IC50 [4, 18]: < 50 nM
- IC50 [5]: < 50 nM
- IC50 [6]: < 50 nM
- IC50 [7]: 50 to 100 nM
SMILES: CNC(=O)c1ccccc1Nc1cc(Nc2cc(C)c(C3CCN(Cc4cc5c(cc4F)C(=O)N(C4CCC(=O)NC4=O)C5)CC3)cc2OC(C)C)ncc1C(F)(F)F (stereo not shown) [GT-04080, 2-((2-((4-(1-((2-(2,6-dioxopiperidin-3-yl)-6-fluoro-1-oxoisoindolin-5-yl)methyl)piperidin-4-yl)-2-isopropoxy-5-methylphenyl)amino)-5-(trifluoromethyl)pyridin-4-yl)amino)-N-methylbenzamide]

- IC50 [6]: 100 to 500 nM
- IC50 [7]: < 50 nM
SMILES: CNC(=O)c1ccccc1Nc1cc(Nc2cc(C)c(N3CCC(N(C)Cc4cc5c(cc4F)C(=O)N(C4CCC(=O)NC4=O)C5)CC3)cc2OC(C)C)ncc1C(F)(F)F (stereo not shown) [GT-04092, 2-((2-((4-(4-(((2-(2,6-dioxopiperidin-3-yl)-6-fluoro-1-oxoisoindolin-5-yl)methyl)(methyl)amino)piperidin-1-yl)-2-isopropoxy-5-methylphenyl)amino)-5-(trifluoromethyl)pyridin-4-yl)amino)-N-methylbenzamide]

- IC50 for inhibiting the proliferation of tumor cells, CCRF-CEM [1, 19]: A+
- IC50 for inhibiting the proliferation of tumor cells, Kasumi-1 [8]: A+
- IC50 for inhibiting the proliferation of tumor cells, MDA-MB-231 [9]: A+
- IC50 for inhibiting the proliferation of tumor cells, MM.1S [3, 20]: A+
- IC50 for inhibiting the proliferation of tumor cells, NCI-H1975 [10]: A+
- IC50 for inhibiting the proliferation of tumor cells, THP-1 [11]: A+
- IC50 for inhibiting the proliferation of tumor cells, Vcap [4, 19]: A+
SMILES: Nc1ncnc2c1c(-c1ccc(Oc3ccccc3)cc1)nn2C1CCN(Cc2ccc3c(c2F)CN(C2CCC(=O)NC2=O)C3=O)CC1 (stereo not shown) [GT-03472, 3-(5-((4-(4-amino-3-(4-phenoxyphenyl)-1H-pyrazolo[3,4-d]pyrimidin-1-yl)piperidin-1-yl)methyl)-4-fluoro-1-oxoisoindolin-2-yl)piperidine-2,6-dione]

- IC50 ([1]; Table 7, designed based on BTK inhibitors, 96 h, read-out: IC50 for inhibiting the proliferation of tumor cells, CCRF-CEM): > 10000 nM
- IC50 ([9]; Homo sapiens, MDA-MB-231, read-out: IC50 for inhibiting the proliferation of tumor cells, MDA-MB-231): > 10000 nM
- IC50 ([3]; Table 7, designed based on BTK inhibitors, 72 h, read-out: IC50 for inhibiting the proliferation of tumor cells, MM.1S): > 10000 nM
- IC50 ([12]; Homo sapiens, 22Rv1, read-out: IC50 for inhibiting the proliferation of tumor cells, 22RV1): > 10000 nM
- IC50 ([11]; Homo sapiens, THP-1, read-out: IC50 for inhibiting the proliferation of tumor cells, THP-1): > 10000 nM
- IC50 ([4]; 96 h, Table 7, designed based on BTK inhibitors, 96 h, read-out: IC50 for inhibiting the proliferation of tumor cells, Vcap): > 10000 nM
SMILES: C=CC(=O)N1CCC[C@@H](n2nc(-c3ccc(Oc4ccccc4)cc3)c3c(N)ncnc32)C1 [ibrutinib, Ibrutinib, reference compound]
